# Results from patent US8623856B2, “Phenoxy-azetidine derivatives as sphingosine 1-phosphate (S1P) receptor modulators” (Allergan, Inc., priority 2012, dated 2014).
# Target: T1, human S1P1 receptor (Homo sapiens, UniProt P21453)
# T1 construct: expressed in transfected cells; host or cells: unnamed cell line stably expressing the S1P1 receptor; membranes were used
# Assay: GTP γ35S binding assay for S1P1 activity
# Format: biochemical
# Details: membranes of cells stably expressing the S1P1 receptor, agonist activity potency
# Experimental: Compounds were synthesized and tested for S1P1 activity using the GTP γ^35S binding assay. These compounds may be assessed for their ability to activate or block activation of the human S1P1 receptor in cells stably expressing the S1P1 receptor. GTP γ^35S binding was measured in the medium containing (mM) HEPES 25, pH 7.4, MgCl2 10, NaCl 100, dithitothreitol 0.5, digitonin 0.003%, 0.2 nM GTP γ^35S, and 5 μg membrane protein in a volume of 150 μl. Test compounds were included in the concentration range from 0.08 to 5,000 nM unless indicated otherwise. Membranes were incubated with 100 μM 5′-adenylylimmidodiphosphate for 30 min, and subsequently with 10 μM GDP for 10 min on ice. Drug solutions and membrane were mixed, and then reactions were initiated by adding GTP γ^35S and continued for 30 min at 25° C. Reaction mixtures were filtered over Whatman GF/B filters under vacuum, and washed three times with 3 mL of ice-cold buffer (HEPES 25, pH7.4, MgCl2 10 and NaCl 100). Filters were dried and mixed with scintillant, and counted for ^35S activity using a β-counter. Agonist-induced GTP γ^35S binding was obtained by subtracting that in the absence of agonist. Binding data were analyzed using a non-linear regression method. In case of antagonist assay, the reaction mixture contained 10 nM S1P in the presence of test antagonist at concentrations ranging from 0.08 to 5000 nM.
# T1 sequence (P21453 whole entry): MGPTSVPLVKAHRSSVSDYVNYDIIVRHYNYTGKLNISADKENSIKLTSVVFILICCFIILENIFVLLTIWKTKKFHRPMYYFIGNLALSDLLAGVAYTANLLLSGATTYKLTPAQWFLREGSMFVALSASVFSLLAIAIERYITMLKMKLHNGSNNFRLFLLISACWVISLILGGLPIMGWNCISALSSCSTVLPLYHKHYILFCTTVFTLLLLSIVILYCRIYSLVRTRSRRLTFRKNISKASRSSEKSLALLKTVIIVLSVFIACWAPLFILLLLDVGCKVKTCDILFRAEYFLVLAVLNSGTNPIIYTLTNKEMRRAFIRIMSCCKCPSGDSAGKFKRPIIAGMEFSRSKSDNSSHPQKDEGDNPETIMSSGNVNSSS
row,SMILES,EC50
1,"Cc1ccc(CC(CCCOc2ccc(CN3CC(C(=O)O)C3)cc2)c2cccc(F)c2F)cc1C (stereo not shown) [1-(4-{([4-(2,3-difluorophenyl)-5-(3,4-dimethylphenyl)pentyl]oxy}benzyl)azetidine-3-carboxylic acid]",1.37 nM
2,"Cc1ccc(CC(CCCOc2ccc(CN3CC(C(=O)O)C3)cc2)c2cc(F)cc(F)c2)cc1C (stereo not shown) [1-(4-{[4-(3,5-difluorophenyl)-5-(3,4-dimethylphenyl)pentyl]oxy}benzyl)azetidine-3-carboxylic acid]",1.4 nM
3,"Cc1ccc(CC(CCCOc2ccc(CN3CC(C(=O)O)C3)cc2)c2ccsc2)cc1C (stereo not shown) [1-(4-{[5-(3,4-dimethylphenyl)-4-(3-thienyl)pentyl]oxy}benzyl)azetidine-3-carboxylic acid]",5.7 nM
4,"Cc1ccc(CC(CCOc2ccc(CN3CC(C(=O)O)C3)cc2)c2cccc(Cl)c2)cc1C (stereo not shown) [1-{4-[3-(3-chlorophenyl)-4-(3,4-dimethylphenyl)butoxy]benzyl}azetidine-3-carboxylic acid]",50.2 nM
